Test results as given in patent US20250275910A1, “Cosmetic application of viniferine” (Tomcat International Limited, priority 2021, published 2025).

Legend:
[1] = test system: human epidermal melanocytes (HEM); assay: Melanin content test on human epidermal melanocytes exposed to blue light; format: cell-based; conditions: total 120 J/cm^2
Description: In the following experimental part, the preventive effect of ε-viniferine (trans-ε-viniferine) at different concentrations, on the damage caused by blue light at two wavelengths (412 nm, characteristic of solar blue light and 450 nm, characteristic of blue light from screens) was evaluated by means of a test for determining the melanin content of cells treated with a composition of the invention. In order to determine the maximum concentrations to be tested, the toxicity of different concentrations of the compositions tested was first evaluated via the MTT test, a live cell counting test involving the MTT tetrazolium salt as a reagent and well known to the professional.
The tests were carried out on human epidermal melanocytes (HEM), which are cells that produce melanin and are therefore responsible for skin pigmentation. […]
The HEM cells were cultured at 37° C., in a 5% CO2 atmosphere and treated with a determined concentration of the composition C1 or the composition C2. […]
(§1) The coloring intensity determined by the optical density measured at 405 nm is directly correlated to the melanin content.
(§2) The melanin content is calculated by relating the absorbance value to that of the negative control.
(§3) The percentage variation in melanin content compared to the blank test or the negative control is calculated according to the following equation: […]

[2] = test system: human skin explants; assay: Melanin content test on human skin explants exposed to blue light; format: cell-based; conditions: human skin explants treated with C11 or C12, blue light at 412 nm or 450 nm, total 120 J/cm^2
Description: The tests were carried out on human skin explants obtained from plastic surgery. The biopsies are divided into explants of 8 mm diameter and kept for survival in complete medium. at 37° C. and in an atmosphere of 5% CO2.
The skin explants are exposed to blue light, at 412 nm or 450 nm or kept in the dark (control) for 5 hours per day, for 3 days, representing a total irradiation of 120 J/cm^2. Before each exposure, the explants are treated overnight with the compositions C11 or C12.
24 hours after the last irradiation, the explants are collected and incubated in a 1 M NaOH solution at 80° C. for 3 hours, allowing the melanin to solubilize. […]
as §1, §2, §3

Oc1ccc(/C=C/c2cc(O)cc3c2[C@@H](c2cc(O)cc(O)c2)[C@H](c2ccc(O)cc2)O3)cc1 (relative stereo) [ε-viniferine, trans-ε-viniferine]
production of melanin (optical density at 405 nm) ([1]; HEM cells treated 24 h before exposure to blue light at 412 nm or 450 nm, 5 h per day for 3 days, versus untreated irradiated cells (NT)): significantly reduce the production of melanin
melanin content relative to culture not exposed to blue light ([1]; HEM cells, blue light at 450 nm): lower the melanin content to the content of a culture of melanocytes not exposed to blue light
melanin content relative to explant not exposed to blue light [2]: lower the melanin content to the content of an explant not exposed to blue light
